This note sets out measurements from US10538521B2, “Pyrimidine derivative having antimalarial activity” (CARNA BIOSCIENCES, INC., priority 2016, dated 2020).

The subject of test [1] is FCR3 strain, a drug sensitive strain of Plasmodium falciparum. Put plainly: In vitro antimalarial assay (p-LDH, Malstat), FCR3 strain. Format: cell-based. Particulars: P. falciparum FCR3 (drug sensitive), 72 h culture, p-LDH readout, read-out: Antimalarial activity (IC50 value), Strain FCR3. The source says:
(§1) For the evaluation of the antimalarial activity of the compound of the present invention, K1 strain, a drug resistant strain of Plasmodium falciparum, and FCR3 strain, a drug sensitive strain thereof, which were generous gift from Professor Kiyoshi Kita of the Graduate School of Medicine and Faculty of Medicine, the University of Tokyo, were used to measure the in vitro antimalarial activity of the compound against those Plasmodium species according to the method established by Otoguro et al. (Otoguro, K., Kohana, A., Manabe, C., Ishiyama, A., Ui, H., Shiomi, K., Yamada, H. & Omura, S.: Potent antimalarial activity of polyether antibiotic, X-206. J. Antibiot., 54: 658-663, (2001)).
(§2) The parasites were grown based on a slightly modified method from the original method reported by Trager and Jensen (Trager, W. and Jensen, J.: Human malaria parasites in continuous culture, Science, 193: 673-677, (1976)), and those which were maintained and sub-cultured by the method were used. More specifically, in a culture dish, erythrocytes infected with the protozoa, which had been sub-cultured using a RPMI 1640 medium to which 10% human plasma had been added and fresh human erythrocytes, were diluted (hematocrit value: 2 to 5%, parasitaemia: 0.25 to 1%), and were cultured at 37° C. in a mixed gas of 3% O2-4% CO2-93% N2, and continuously cultured while changing the medium and adding fresh erythrocytes at 2- or 3-day intervals.
(§3) A drug susceptibility test was performed by modifying the method established by Desjardins et al. (Desjardins, R. E., Canfield, C. J., Haynes, D. E. and Chulay, J. D.: Quantitative assessment of antimalarial activity in vitro by a semiautomated microdilution technique. Antimicrob. Agents Chemother., 16: 710-718 (1979)). More specifically, 190 μL of a suspension of protozoa which had been precultured (hematocrit value: 2%, parasitaemia: 0.5 or 1%) and 10 μL of a solution of a test compound (5% DMSO solution) serially diluted so that the final concentration was 12.5 to 0.0001 μM were put in each well of a 96-well plate, and after mixing, the same was cultured for 72 hours in the above mixed gas.
(§4) For the measurement of the growth of protozoa, the method established by Makler (Makler, M. T., Rise, J. M., Williams, J. A., Bancroft, J. E., Piper, R. C., Gibbins, B. L. and Hinrichs, D. J.: Parasite lactate dehydrogenase as an Assay for Plasmodium falciparum drug sensitivity, Am. J. Med. Hyg., 48: 739-741 (1993)) was modified to colorimetrically determine parasite lactate dehydrogenase (p-LDH) using Malstat reagent (Flow Inc., USA).
(§5) More specifically, 72 hours after the culture, the 96-well plate was directly frozen at −20° C. for 18 hours and melted at 37° C. to hemolyze the protozoan-infected erythrocytes and destroy the protozoa to prepare a crude enzyme solution. 100 μL of Malstat reagent and 20 μL of the crude enzyme solution were added to and mixed in each well of another 96-well plate, and after reacting for 15 minutes at room temperature, 20 μL of a nitroblue tetrazolium 2 mg/mL phenazine ethosulfate 0.1 mg/mL=1:1 solution was added to the respective wells, and reaction was performed in dark conditions at room temperature for 2 hours.
(§6) The absorbance of the blue formazan product formed by the reaction was measured at a measurement wavelength of 655 nm by using a microplate reader (Labsystems, Finland) to colorimetrically determine the growth of the protozoa. The 50% growth inhibitory concentration for the protozoa of the compound (IC50 value) was determined based on the concentration-response curve of the compound.

Test [2] relates to K1 strain, a drug resistant strain of Plasmodium falciparum. The test can be described thus: In vitro antimalarial assay (p-LDH, Malstat), K1 strain. Format: cell-based. As to conditions: P. falciparum K1 (drug resistant), 72 h culture, p-LDH readout, read-out: Antimalarial activity (IC50 value), Strain K1.
From the text: as §1, §2, §3, §4, §5, §6

Take `Fc1cccnc1Nc1nc(Nc2ccn3ccnc3c2)cc(N2CCOCC2)n1` [Example 20, N2-(3-Fluoropyridin-2-yl)-N4-(imidazo[1,2-a]pyridin-7-yl)-6-morpholinopyrimidine-2,4-diamine]: the IC50 in test [1] and in test [2] was 100 to 1000 nM in each case.
Take `Fc1ccnc(Nc2nc(Nc3ccn4ccnc4c3)cc(N3CCOCC3)n2)c1` [Example 21, N2-(4-Fluoropyridin-2-yl)-N4-(imidazo[1,2-a]pyridin-7-yl)-6-morpholinopyrimidine-2,4-diamine]: the IC50 in test [1] and in test [2] was 100 to 1000 nM in each case.
On to `c1cc(Nc2nc(Nc3ccn4ccnc4c3)cc(N3CCOCC3)n2)ncn1` [Example 22, N4-(Imidazo[1,2-a]pyridin-7-yl)-6-morpholino-N2-(pyrimidin-4-yl)pyrimidine-2,4-diamine], for which the IC50 in test [1] and in test [2] was 100 to 1000 nM each time.
In the case of `COc1ccncc1Nc1nc(Nc2ccn3ccnc3c2)cc(N2CCOCC2)n1` [Example 23, N4-(Imidazo[1,2-a]pyridin-7-yl)-N2-(4-methoxypyridin-3-yl)-6-morpholinopyrimidine-2,4-diamine], the results for the IC50 in test [1] and in test [2] were 100 to 1000 nM and 1000 to 10000 nM, respectively.
For `Cc1ccnc(Nc2nc(Nc3ccn4ccnc4c3)cc(N3CCN(C)CC3)n2)c1` [Example 25, N4-(imidazo[1,2-a]pyridin-7-yl)-6-(4-methylpiperazin-l-yl)-N 2-(4-methylpyridin-2-yl)pyrimidine-2,4-diamine], the IC50 in test [1] and in test [2] was 1000 to 10000 nM each time.
With `Cc1ccc(Nc2nc(Nc3ccn4ccnc4c3)cc(N3CCCCC3)n2)nc1` [Example 26, N4-(imidazo[1,2-a]pyridin-7-yl)-N2-(5-methylpyridin-2-yl)-6-(piperidin-1-yl)pyrimidine-2,4-diamine], the IC50 in test [1] and in test [2] was less than 100 nM in each case.
On to `Cc1ccc(Nc2nc(Nc3ccn4ccnc4c3)cc(N3CCN(C)CC3)n2)nc1` [Example 27, N4-(imidazo[1,2-a]pyridin-7-yl)-6-(4-methylpiperazin-1-yl)-N 2-(5-methylpyridin-2-yl) pyrimidine-2,4-diamine], for which the results for the IC50 in test [1] and in test [2] were 1000 to 10000 nM and 100 to 1000 nM, respectively.
For `CCOc1cc(Nc2ccn3ccnc3c2)nc(Nc2cccc(C)n2)n1` [Example 29, 6-ethoxy-N4-(imidazo[1,2-a]pyridin-7-yl)-N2-(6-methylpyridin-2-yl)pyrimidine-2,4-diamine], the IC50 in test [1] and in test [2] was 100 to 1000 nM throughout.
For `Cc1cc(C)nc(Nc2nc(Nc3ccn4ccnc4c3)cc(N3CCN(C)CC3)n2)c1` [Example 30, N2-(4,6-dimethylpyridin-2-yl)-N4-(imidazo[1,2-a]pyridin-7-yl)-6-(4-methylpiperazin-1-yl) pyrimidine-2,4-diamine], the IC50 in test [1] and in test [2] was less than 100 nM in each case.
For `Cc1cc(C)nc(Nc2nc(Nc3ccn4ccnc4c3)cc(N3CCN[C@@H](C)C3)n2)c1` [Example 31, (S)-N2-(4,6-dimethylpyridin-2-yl)-N4-(imidazo[1,2-a]pyridin-7-yl)-6-(3-methylpiperazin-1-yl)pyrimidine-2,4-diamine], the IC50 in test [1] and in test [2] was 100 to 1000 nM in each case.
Take `CCOc1cc(Nc2ccn3ccnc3c2)nc(Nc2cc(C)cc(C)n2)n1` [Example 33, N2-(4,6-dimethylpyridin-2-yl)-6-ethoxy-N4-(imidazo[1,2-a]pyridin-7-yl)pyrimidine-2,4-diamine]: the IC50 was less than 100 nM in test [1] and 100 to 1000 nM in test [2].
For `Cc1ccnc(Nc2nc(Nc3ccn4ccnc4c3)cc(N3CCN(C)[C@@H](C)C3)n2)c1` [Example 35, (S)-6-(3,4-dimethylpiperazin-1-yl)-N4-(imidazo[1,2-a]pyridin-7-yl)-N2-(4-methylpyridin-2-yl)pyrimidine-2,4-diamine] the same measures were 1000 to 10000 nM and 1000 to 10000 nM.
For `CCOc1cc(Nc2ccn3ccnc3c2)nc(Nc2cc(C)ccn2)n1` [Example 36, 6-ethoxy-N4-(imidazo[1,2-a]pyridin-7-yl)-N2-(4-methylpyridin-2-yl) pyrimidine-2,4-diamine] the same measures were 1000 to 10000 nM and 1000 to 10000 nM.
Turning to `Cc1ccc(Nc2nc(Nc3ccn4ccnc4c3)cc(N3CCN(C)[C@@H](C)C3)n2)nc1` [Example 37, (S)-6-(3,4-dimethylpiperazin-1-yl)-N4-(imidazo[1,2-a]pyridin-7-yl)-N2-(5-methylpyridin-2-yl)pyrimidine-2,4-diamine], the IC50 in test [1] and in test [2] was 1000 to 10000 nM each time.
In the case of `CCOc1cc(Nc2ccn3ccnc3c2)nc(Nc2ccc(C)cn2)n1` [Example 38, 6-ethoxy-N4-(imidazo[1,2-a]pyridin-7-yl)-N2-(5-methylpyridin-2-yl)pyrimidine-2,4-diamine], the IC50 in test [1] and in test [2] was 100 to 1000 nM each time.
Take `Cc1cccc(Nc2nc(Nc3ccn4ccnc4c3)cc(N3CCN(C)CC3)n2)n1` [Example 39, N4-(imidazo[1,2-a]pyridin-7-yl)-6-(4-methylpiperazin-1-yl)-N2-(6-methylpyridin-2-yl)pyrimidine-2,4-diamine]: the IC50 in test [1] and in test [2] was 1000 to 10000 nM in each case.
With `Cc1cccc(Nc2nc(Nc3ccn4ccnc4c3)cc(N3CCN(C)[C@@H](C)C3)n2)n1` [Example 40, (S)-6-(3,4-dimethylpiperazin-1-yl)-N4-(imidazo[1,2-a]pyridin-7-yl)-N2-(6-methylpyridin-2-yl)pyrimidine-2,4-diamine], the IC50 in test [1] and in test [2] was 1000 to 10000 nM each time.
Regarding `Cc1cccc(Nc2nc(Nc3ccn4ccnc4c3)cc(-n3ccnc3)n2)n1` [Example 41, N4-(imidazo[1,2-a]pyridin-7-yl)-6-(1H-imidazol-1-yl)-N2-(6-methylpyridin-2-yl)pyrimidine-2,4-diamine], the IC50 is less than 100 nM in test [1] and 100 to 1000 nM in test [2].
For `Cc1ccnc(Nc2nc(Nc3ccn4ccnc4c3)cc(-n3ccnc3)n2)c1` [Example 42, N4-(imidazo[1,2-a]pyridin-7-yl)-6-(1H-imidazol-1-yl)-N2-(4-methylpyridin-2-yl)pyrimidine-2,4-diamine] the same measures were 100 to 1000 nM and 100 to 1000 nM.
On to `Cc1ccc(Nc2nc(Nc3ccn4ccnc4c3)cc(-n3ccnc3)n2)nc1` [Example 43, N4-(imidazo[1,2-a]pyridin-7-yl)-6-(1H-imidazol-1-yl)-N2-(5-methylpyridin-2-yl)pyrimidine-2,4-diamine], for which the IC50 in test [1] was less than 100 nM; in test [2], 100 to 1000 nM.
On to `Cc1ccc(Nc2nc(N)cc(Nc3ccn4ccnc4c3)n2)nc1` [Example 44], for which the IC50 in test [1] and in test [2] was less than 100 nM in each case.
On to `Cc1cc(C)nc(Nc2nc(Nc3ccn4ccnc4c3)cc(N3CCN(C)[C@@H](C)C3)n2)c1` [Example 45, (S)-6-(3,4-dimethylpiperazin-1-yl)-N2-(4,6-dimethylpyridin-2-yl)-N4-(imidazo[1,2-a]pyridin-7-yl)pyrimidine-2,4-diamine], for which the values for the IC50 in test [1] and in test [2] were less than 100 nM and 1000 to 10000 nM, respectively.
Take `Cc1cc(C)nc(Nc2nc(Nc3ccn4ccnc4c3)cc(-n3ccnc3)n2)c1` [Example 46]: the IC50 in test [1] was less than 100 nM; in test [2], 100 to 1000 nM.
With `FC(F)(F)c1ccnc(Nc2nc(Nc3ccn4ccnc4c3)cc(N3CCOCC3)n2)c1` [Example 47, N4-(imidazo[1,2-a]pyridin-7-yl)-6-morpholino-N2-(4-(trifluoromethyl)pyridin-2-yl) pyrimidine-2,4-diamine], the IC50 was less than 100 nM in test [1] and 100 to 1000 nM in test [2].
